Literature values in patent publication US20250283018A1, “TOILET RIM BLOCKS WITH SCENT CHANGE” (SYMRISE AG, priority 2021, published 2025).
Like-named read-outs stand apart in the source and are kept apart here.

Legend:
[1] = not given; remark: listed apart in the source
[2] = Table 3, components of POWER PLATIN

Compound	Bp. [° C.] (list of selected fragrances) [°C]	Bp. [° C.] (Table 1, components of MARINA) [°C]	Bp. [° C.] [2] [°C]	Bp. [° C.] (Table 2, components of PEACH) [°C]	other results
CC1CC(C)(c2ccccc2)OC(C)O1 (stereo not drawn)	279.2				logP ([1]; list of selected fragrances): 2.79
CCCCC(=CCC#N)CC	230				logP ([1]; list of selected fragrances): 3.98
CCCC1(C)OC2CC34CC(C(C)(C)C3CCC4C)C2(C)O1 (stereo not drawn)	336				logP ([1]; list of selected fragrances): 5.94
CC(C)=CCCC(C)CC#N (stereo not drawn)		235			logP ([1]; Table 1, components of MARINA): 3.55
CC(C=O)Cc1ccc(C(C)C)cc1 (stereo not drawn)	262		262		logP [1, 2]: 3.91; logP ([1]; list of selected fragrances): 3.61
CSC				37	
CC(C)=CCCC(C)=CCCc1ccncc1		307			logP ([1]; Table 1, components of MARINA): 5.95
CCOC(=O)CC(O)(CC(=O)OCC)C(=O)OCC				294	
3-METHYLBUTYL-CYCLOHEXANOL	245				logP ([1]; list of selected fragrances): 4.49
C=CC(C)(O)CCC=C(C)CC (mixture of isomers) [ETHYLLINALOOL]		224			
CC1(C)[C@@H]2CC[C@@]1(C)[C@H](O)C2 (racemic) [ISOBORNEOL]		211			
CC(=O)O[C@@H]1C[C@H]2CC[C@]1(C)C2(C)C (racemic) [ISOBORNYLACETAT]		224			logP ([1]; Table 1, components of MARINA): 3.86
CC1=CCC(C=CC(C)C(C)O)C1(C)C (stereo in doubt) [EBANOL]			274		logP [1, 2]: 4.93
CCCCCCC1OC(=O)CC1C (stereo not drawn) [3-METHYL-GAMMA-DECALACTONE]	293				
CC(C)C1CC=C(CCC=O)CC1 (stereo not drawn) [3-[4-ISOPROPYLCYCLOHEXEN-1-YL]PROPANAL]	258				logP ([1]; list of selected fragrances): 4.8
O=C1CCCCCCCCCCCCCCC1 [8-CYCLOHEXADECANONE, 8-cyclohexadecanone]	323			323	logP ([1]; Table 2, components of PEACH): 5.82; logP ([1]; list of selected fragrances): 5.97
CCC(CC)COC(=O)CC1C=CCC1 (stereo not drawn) [(2-CYCLOPENTEN-1-ACETIC ACID-2-ETHYLBUTYL ESTER]	252				
C=C(C)C1CC=C(C)C(OC(C)=O)C1 (stereo not drawn) [ACETIC ACID CARVYL ESTER]	92				logP ([1]; list of selected fragrances): 4.26
CC(=O)OC1CCCCC1C(C)(C)C (stereo not drawn) [AGRUMEX LC]		227	227	227	
CCCCCCCCCC=O [ALDEHYD C10]		208.5	208.5	208.5	logP ([1]; Table 1, components of MARINA): 3.76; logP ([1]; Table 2, components of PEACH): 3.76; logP [1, 2]: 3.76
CCCCCCCCCCC=O [ALDEHYD C11 UNDECANAL]		223			logP ([1]; Table 1, components of MARINA): 4.25

Compound	Bp. [° C.] (list of selected fragrances) [°C]	Bp. [° C.] (Table 1, components of MARINA) [°C]	Bp. [° C.] [2] [°C]	Bp. [° C.] (Table 2, components of PEACH) [°C]	other results
CCCCCCCCCCCC=O [ALDEHYD C12 LAURIN]		249			logP ([1]; Table 1, components of MARINA): 4.75
CCCCCCCCCC(C)C=O (stereo not drawn) [ALDEHYD C12 MNA]			171		logP [1, 2]: 4.67
CCCCCC1CCC(=O)O1 (stereo not drawn) [ALDEHYD C18 SOG.]				250	
CCCCCCCC=O [ALDEHYD C 8]		171		171	logP ([1]; Table 1, components of MARINA): 2.78; logP ([1]; Table 2, components of PEACH): 2.78
CCCCCCCCC=O [ALDEHYD C 9]		191			logP ([1]; Table 1, components of MARINA): 3.27
CCCCCCCCCCO [ALKOHOL C10]		231.1			logP ([1]; Table 1, components of MARINA): 3.79
C=CCOC(=O)COCCC(C)C [ALLYLAMYLGLYCOLAT]			226		
C=CCOC(=O)CCC1CCCCC1 [ALLYLCYCLOHEXYLPROPIONAT]	250				
C=CCOC(=O)COc1ccccc1 [ALLYLPHENOXYACETAT]	266			266	
COC(OC)C(C)(C)CC=C(C)C [AMAROCIT ®]			203		logP [1, 2]: 3.39
CC1(C)CCC[C@]2(C)[C@H]3CCO[C@]3(C)CC[C@@H]12 [AMBROXIDE]		283			
C/C=C/c1ccc(OC)cc1 [ANETHOL SUPRA 21.5 CELSIUS]			234		
COc1ccc(C=O)cc1 [ANISALDEHYD REIN]			248		
CCCCCCC1OC(=O)CC1C (stereo not drawn) [APRIFLOREN ®]				274	
O=C(OCc1ccccc1)c1ccccc1O [BENZYLSALICYLAT]	325				logP ([1]; list of selected fragrances): 4.06
CC(=O)/C=C/C1=C(C)CCCC1(C)C [BETA IONONE]	259	259			logP ([1]; list of selected fragrances): 3.77
Cc1ccc2c(c1)OCC(=O)CO2 [CALONE]		289	289		logP ([1]; Table 1, components of MARINA): 2.43; logP [1, 2]: 2.43
C=C1CC/C=C(/C)CC[C@@H]2[C@@H]1CC2(C)C [CARYOPHYLLEN NAT. REKT.]			251		logP [1, 2]: 6.3
CO[C@]1(C)CC[C@@]23C[C@@H]1C(C)(C)[C@@H]2CC[C@H]3C [CEDRAMBER]		270	270		
C[C@@H]1CC[C@H]2C(C)(C)[C@H]3C[C@@]12CC[C@@]3(C)O [CEDROL CRIST. NAT.]		283	283		
CO[C@]1(C)CC[C@@]23C[C@@H]1C(C)(C)[C@@H]2CC[C@H]3C [CEDROL METHYL ETHER]	270				

Compound	Bp. [° C.] (list of selected fragrances) [°C]	Bp. [° C.] (Table 1, components of MARINA) [°C]	Bp. [° C.] [2] [°C]	Bp. [° C.] (Table 2, components of PEACH) [°C]	other results
CC(C)=CCCC(C)CCO (stereo not drawn) [CITRONELLOL 950]			223		
CC(C)=CCCC(C)CCOC(=O)C(C)C (stereo not drawn) [CITRONELLYLISOBUTYRAT]	267			267	logP ([1]; Table 2, components of PEACH): 5.47; logP ([1]; list of selected fragrances): 5.04
C=CCOC(=O)COC1CCCCC1 [CYCLOGALBANAT]	256	256	256		
C/C=C/C(=O)C1=C(C)C=CCC1(C)C [DAMASCENON]			263	263	logP ([1]; Table 2, components of PEACH): 4.21; logP [1, 2]: 4.21
CCCCCC1CCCC(=O)O1 (stereo not drawn) [DECALACTON DELTA]				267	logP ([1]; Table 2, components of PEACH): 2.57
C/C=C/C(=O)C1C(C)C=CCC1(C)C (stereo not drawn) [DELTA DEMASCONE]	251		251	251	logP ([1]; Table 2, components of PEACH): 4.16; logP [1, 2]: 4.16
C=CC(C)CCCC(C)(C)O (stereo not drawn) [DIHYDROMYRCENOL]		194	194		logP ([1]; Table 1, components of MARINA): 3.47; logP [1, 2]: 3.47
c1ccc(Oc2ccccc2)cc1 [DIPHENYLOXID]		258	258		logP ([1]; Table 1, components of MARINA): 4.05; logP [1, 2]: 4.05
CC(O)COC(C)CO (stereo not drawn) [DIPROPYLENGLYCOL]		231	231	231	
CCCCCCCCC1CCC(=O)O1 (stereo not drawn) [DODECALACTON GAMMA]				291	logP ([1]; Table 2, components of PEACH): 3.55
CCC(=CCC1CC=C(C)C1(C)C)CO (stereo not drawn) [ETHYL TRIMETHYLCYCLOPENTENE BUTENOL]	276				logP ([1]; list of selected fragrances): 4.63
CCCCCC(=O)OCC [ETHYLCAPRONAT]				166	
O=C1CCCCCCCCCCCC(=O)OCCO1 [ETHYLENBRASSYLAT]		382			logP ([1]; Table 1, components of MARINA): 4.71
CCc1occc(=O)c1O [ETHYLMALTOL]			290		logP [1, 2]: 0.3
CCOC(=O)C(C)CC (stereo not drawn) [ETHYLMETHYLBUTYRAT-2]		135		135	
CC12CCC(CC1)C(C)(C)O2 [EUCALYPTOL NAT.]		176			
C=CCc1ccc(O)c(OC)c1 [EUGENOL]	253.2		253.2		
CC12CCC(C1)C(C)(C)C2O (stereo not drawn) [FENCHOL]		212			
CCc1ccc(CC(C)(C)C=O)cc1 [FLORALOZONE]			276.6		logP [1, 2]: 3.94
CC1CC(C)(c2ccccc2)OC(C)O1 (stereo not drawn) [FLOROPAL]		273			logP ([1]; Table 1, components of MARINA): 3.11
Cc1ccc2c(c1)OC(=O)C2C (stereo not drawn) [FURAMINTON/TONKALACTONE ™]				284	logP ([1]; Table 2, components of PEACH): 1.44

Compound	Bp. [° C.] (list of selected fragrances) [°C]	Bp. [° C.] (Table 1, components of MARINA) [°C]	Bp. [° C.] [2] [°C]	Bp. [° C.] (Table 2, components of PEACH) [°C]	other results
CCCCCCC1CCC(=O)O1 (stereo not drawn) [GAMA DECALACTONE]	266			266	logP ([1]; Table 2, components of PEACH): 2.57; logP ([1]; list of selected fragrances): 2.36
CCCCCC1C(=O)CCC1CC(=O)OC (stereo not drawn) [HEDION]			296	296	
O=Cc1ccc2c(c1)OCO2 [HELIOTROPIN/PIPERONAL]	263				logP ([1]; list of selected fragrances): 1.35
CCCCCC(C)=O [HEPTANON-2]				150	logP ([1]; Table 2, components of PEACH): 1.73
CC/C=C\CCO [HEXENOL CIS-3]		157		157	
CCC/C=C/CO [HEXENOL TRANS-2]				159	
CC/C=C/CCOC(=O)c1ccccc1O [HEXENYLSALICYLAT CIS-3]	301				logP ([1]; list of selected fragrances): 4.5
CCCCCCOC(C)=O [HEXYLACETAT]		169		169	
CCCCCCOC(=O)c1ccccc1O [HEXYLSALICYLAT, hexyl salicylate]	327	327			logP ([1]; Table 1, components of MARINA): 5.06; logP ([1]; list of selected fragrances): 4.98
CC12CCC(CC1=O)C2(C)C (stereo not drawn) [KAMPFER DL]		204			
CC/C=C\CCOC(=O)OC [LEAFOVERT ®]				189	
CC(=O)OC1CC(C)CCC1C(C)C (stereo not drawn) [MENTHYL ACETATE]	255				
CCCCCC1C(=O)CCC1CC(=O)OC (stereo not drawn) [METHYLDIHYDROJASMONATE]	296				
CC(=O)c1oc2ccccc2c1C [NEROLIONE]				272	
CCCCC1CCC(=O)O1 (stereo not drawn) [OCTALACTON GAMMA]				234	
C=CCCC(=O)C(=C)C1CCCCC1 [PHARAONE 10% DPG]			0		
CC(=O)OC(C)c1ccccc1 (stereo not drawn) [STYROLYLACETAT]		214		214	
CCC(C)(O)CCCC(C)C (stereo not drawn) [TETRAHYDROLINALOOL]		197	197		
CC1=CC(C)C(C=O)CC1 (stereo not drawn) [VERTOCITRAL]		187			
BORNEOL L/ISOBORNEOL 65/35			212		
TERPINEOL REIN		219.16		219.16	
